Source: article PMC12029179, “6-Chlorocoumarin Conjugates with Nucleobases and Nucleosides as Potent Anti-Hepatitis C Virus Agents” (Molecules, 2025)

Tests used:
[1] = tested on: HCV genotype 1b subgenomic replicon; experiment: Anti-HCV assay in Huh 5-2 cells (luciferase replicon readout); assay type: cell-based, hepatitis C virus (HCV); details: for EC50: Hepatitis C virus, Huh-5-2, Huh 5-2 cells, luminescence; for SI (CC50/EC50): Huh 5-2 cells
Source text: (§1) An evaluation of the antiviral effects of the conjugated compounds was initially performed in Huh 5-2 cells utilizing the HCV genotype 1b subgenomic replicon system, based on previously reported procedures. By analyzing the dose–response curves, we calculated the concentration of each compound that inhibited the viral replication by 50% (EC50) and the concentration that reduced the host-cell metabolic activity by 50% (CC50). These values were then used to compute the selectivity index (SI = CC50/EC50), which serves as an indicator of a compound’s therapeutic window. Even if an EC50 was determined from the dose–response curve in the antiviral assay, the compounds that were evaluated may not qualify as promising hits. […] It is likely that the antiviral activity observed in the other compounds is due to their nonspecific or pleiotropic effects on the host cell.
Huh 5-2 cells were plated in white, tissue culture-treated 96-well view plates (Packard, Canberra, Canada) at a density of 5 × 10^3 cells per well, using complete Dulbecco’s Modified Eagle Medium (DMEM) containing 250 µg/mL G418. Following 24 h incubation at 37 °C with 5% CO2, the medium was discarded and serial 3-fold dilutions of the test compounds—prepared in complete DMEM lacking G418—were added to reach a final volume of 100 µL per well. After an additional 4-day incubation period under the same conditions, the medium was removed, and luciferase activity was assessed using the Steady-Glo luciferase assay kit (Promega, Leiden, The Netherlands). Luminescence was measured with a Luminoskan Ascent reader (Thermo, Vantaa, Finland). The EC50 value was determined as the compound concentration resulting in a 50% decrease in luciferase signal.

[2] = Host-cell metabolic activity (MTS assay) in Huh 5-2 cells; assay type: cell-based; details: human
Source text: as §1

HCV subgenomic replicon = experiment: Anti-HCV assay in Huh 9-13 cells (real-time quantitative RT-PCR of replicon RNA); assay type: cell-based, hepatitis C virus (HCV); details: for % replicon RNA: normalized against no-drug control; for EC50: Hepatitis C virus
Protocol: Furthermore, the antiviral activity of three of the hits (i.e., 7a, 7b, and 18) was validated by evaluation of the dose–response effect of treatment with the compounds at the level of viral RNA replication in the Huh 9-13 assay system. The real-time quantitative RT-PCR readout was used.
Huh 9-13 cells were seeded at 5 × 10^3 cells per well into 96-well plates containing complete DMEM supplemented with 1000 µg/mL G418. […] After 4 days of incubation, the culture medium was removed, and the cell monolayers were washed once with phosphate-buffered saline (PBS). Cells were then lysed using 350 µL of RLT buffer (Qiagen, Venlo, The Netherlands) as per the manufacturer’s protocol, and the lysates were stored at −80 °C for future analysis. Upon completion of sample collection, RNA was extracted, and the samples were analyzed through quantitative real-time PCR to measure their HCV replicon content. The real-time RT-PCR data for all samples were calibrated against the “no-drug control”.
* After collection of all samples, RNA was extracted and samples were analyzed by quantitative real-
time PCR for their HCV replicon content. Real-time RT-PCR values of all assayed samples were
normalized against the “no-drug control”.

[3] = Host-cell metabolic activity in Huh 9-13 cells; assay type: cell-based; details: human
Huh 9-13 cells = experiment: Host-cell metabolic activity in Huh 9-13 cells; assay type: cell-based
Detroit 551 cells = experiment: Cell viability (MTS) assay in Detroit 551 cells; assay type: cell-based; details: Detroit 551 cells; for cell death at highest tested concentration: 20 μM; for IC50: Homo sapiens, 72 h incubation, tested starting at 20.0 μM, read-out: IC50 (cell survival rate of 50%)
Protocol: Detroit 551 cells, a human fibroblast cell line, are routinely employed to assess both acute and chronic toxicity in normal human cells. Evaluating the cytotoxicity of compounds in Detroit 551 cells helps to identify potential safety concerns early in drug development. The three promising leads, 7a, 7b, and 18, were tested in a Detroit 551 assay using the antineoplastic and antibiotic agent actinomycin D as a positive control.
Detroit 551 cells were harvested and seeded into a 96-well plate, then incubated at 37 °C for 24 h. A serial dilution of the test compound was prepared in eight three-fold concentrations (20,000 nM, 6667 nM, 2222 nM, 741 nM, 247 nM, 82 nM, 27 nM, and 9 nM), and 10 µL of each dilution was added to the corresponding wells. The plate was then returned to 37 °C for an additional 72 h of incubation. After this incubation, a 3-(4,5-dimethylthiazol-2-yl)-5-(3-carboxymethoxyphenyl)-2-(4-sulfophenyl)-2H-tetrazolium (MTS) assay medium (mixed in a 2:0.1 ratio of MTS–phenazine methyl sulfate (PMS)) was prepared. The plate was moved to a biological safety cabinet, and 21 µL of the MTS medium was added to each well. The plate was then incubated at 37 °C for 90 min before absorbance was measured at 490 nm on a Victor 2 plate reader (PerkinElmer, Inc., Waltham, MA, USA). Data were subsequently analyzed to assess cytotoxicity.

[4] = primary screening, tested starting at 50 μg/mL
[5] = secondary screen starting at 125 μg/mL, average of triplicate
[6] = primary screening starting at 50 μg/mL
[7] = secondary screen starting at 125 μg/mL
[8] = real-time quantitative RT-PCR readout
[9] = compound 18 tested starting at 125 µg/mL

SMILES: O=c1oc2ccc(Cl)cc2cc1CSc1ncnc2c1ncn2[C@@H]1O[C@H](CO)[C@@H](O)[C@H]1O [Compound 7b, 6-(6′-Chlorocoumarin-3′-yl)methylthio-9-(β-D-ribofuranos-1″-yl)purine]
- EC50 [1, 4]: 8.8 µM
- EC50 [1, 5]: 5.6 µM
- SI (CC50/EC50) [1, 6]: >12
- SI (CC50/EC50) [1, 7]: >47
- CC50 [2, 4]: > 105 µM
- CC50 [2, 7]: > 262 µM
- SI (CC50/EC50) (HCV subgenomic replicon): >16
- Quantity (HCV replicon RNA, real-time PCR) (HCV subgenomic replicon; 0.023 µg/ml): 1.11E-04
- % replicon RNA (HCV subgenomic replicon; 0.023 µg/ml): 92%
- Quantity (HCV replicon RNA, real-time PCR) (HCV subgenomic replicon; 0.069 µg/ml): 1.33E-04
- % replicon RNA (HCV subgenomic replicon; 0.069 µg/ml): 110%
- Quantity (HCV replicon RNA, real-time PCR) (HCV subgenomic replicon; 0.206 µg/ml): 2.07E-04
- % replicon RNA (HCV subgenomic replicon; 0.206 µg/ml): 171%
- Quantity (HCV replicon RNA, real-time PCR) (HCV subgenomic replicon; 0.617 µg/ml): 1.03E-04
- % replicon RNA (HCV subgenomic replicon; 0.617 µg/ml): 85%
- Quantity (HCV replicon RNA, real-time PCR) (HCV subgenomic replicon; 5.56 µg/ml): 2.85E-05
- % replicon RNA (HCV subgenomic replicon; 5.56 µg/ml): 24%
- Quantity (HCV replicon RNA, real-time PCR) (HCV subgenomic replicon; 16.67 µg/ml): 1.64E-05
- % replicon RNA (HCV subgenomic replicon; 16.67 µg/ml): 14%
- Quantity (HCV replicon RNA, real-time PCR) (HCV subgenomic replicon; 50 µg/ml): 3.63E-06
- % replicon RNA (HCV subgenomic replicon; 50 µg/ml): 3%
- Quantity (HCV replicon RNA, real-time PCR) (HCV subgenomic replicon; 1.852 (7b: 1.85) µg/ml): 9.12E-05
- % replicon RNA (HCV subgenomic replicon; 1.852 (7b: 1.85) µg/ml): 75%
- EC50 (HCV subgenomic replicon; [8]): 6.6 µM
- EC50 (HCV subgenomic replicon; supplement dose-response data): 3.17 µg/mL
- CC50 [3, 9]: > 105 µM
- CC50 ([3]; supplement dose-response data): > 50 µg/mL
- % cell metabolism (Huh 9-13 cells; 0.023 µg/ml): 100%
- % cell metabolism (Huh 9-13 cells; 0.069 µg/ml): 107%
- % cell metabolism (Huh 9-13 cells; 0.206 µg/ml): 102%
- % cell metabolism (Huh 9-13 cells; 0.617 µg/ml): 108%
- % cell metabolism (Huh 9-13 cells; 5.56 µg/ml): 115%
- % cell metabolism (Huh 9-13 cells; 16.67 µg/ml): 113%
- % cell metabolism (Huh 9-13 cells; 50 µg/ml): 94%
- % cell metabolism (Huh 9-13 cells; 1.852 (7b: 1.85) µg/ml): 106%
- cell death at highest tested concentration (Detroit 551 cells): none of the three compounds induced cell death
- IC50 (Detroit 551 cells): > 20 µM

SMILES: O=c1oc2ccc(Cl)cc2cc1CSc1ncnc2[nH]cnc12 [Compound 7a, 6-[(6′-Chlorocoumarin-3′-yl)methylthio]purine]
- EC50 [1, 4]: 8.6 µM
- EC50 [1, 5]: 4.8 µM
- SI (CC50/EC50) [1, 6]: >17
- SI (CC50/EC50) [1, 7]: >76
- CC50 [2, 4]: > 145 µM
- CC50 [2, 7]: > 363 µM
- SI (CC50/EC50) (HCV subgenomic replicon): >20
- Quantity (HCV replicon RNA, real-time PCR) (HCV subgenomic replicon; 0.023 µg/ml): 1.12E-04
- % replicon RNA (HCV subgenomic replicon; 0.023 µg/ml): 93%
- Quantity (HCV replicon RNA, real-time PCR) (HCV subgenomic replicon; 0.069 µg/ml): 1.44E-04
- % replicon RNA (HCV subgenomic replicon; 0.069 µg/ml): 119%
- Quantity (HCV replicon RNA, real-time PCR) (HCV subgenomic replicon; 0.206 µg/ml): 1.36E-04
- % replicon RNA (HCV subgenomic replicon; 0.206 µg/ml): 112%
- Quantity (HCV replicon RNA, real-time PCR) (HCV subgenomic replicon; 0.617 µg/ml): 8.96E-05
- % replicon RNA (HCV subgenomic replicon; 0.617 µg/ml): 74%
- Quantity (HCV replicon RNA, real-time PCR) (HCV subgenomic replicon; 5.56 µg/ml): 2.70E-05
- % replicon RNA (HCV subgenomic replicon; 5.56 µg/ml): 22%
- Quantity (HCV replicon RNA, real-time PCR) (HCV subgenomic replicon; 16.67 µg/ml): 1.20E-05
- % replicon RNA (HCV subgenomic replicon; 16.67 µg/ml): 10%
- Quantity (HCV replicon RNA, real-time PCR) (HCV subgenomic replicon; 50 µg/ml): 4.54E-06
- % replicon RNA (HCV subgenomic replicon; 50 µg/ml): 4%
- Quantity (HCV replicon RNA, real-time PCR) (HCV subgenomic replicon; 1.852 (7b: 1.85) µg/ml): 7.41E-05
- % replicon RNA (HCV subgenomic replicon; 1.852 (7b: 1.85) µg/ml): 61%
- EC50 (HCV subgenomic replicon; [8]): 7.3 µM
- EC50 (HCV subgenomic replicon; supplement dose-response data): 2.5 µg/mL
- CC50 [3, 9]: > 145 µM
- CC50 ([3]; supplement dose-response data): > 50 µg/mL
- % cell metabolism (Huh 9-13 cells; 0.023 µg/ml): 109%
- % cell metabolism (Huh 9-13 cells; 0.069 µg/ml): 104%
- % cell metabolism (Huh 9-13 cells; 0.206 µg/ml): 109%
- % cell metabolism (Huh 9-13 cells; 0.617 µg/ml): 105%
- % cell metabolism (Huh 9-13 cells; 5.56 µg/ml): 112%
- % cell metabolism (Huh 9-13 cells; 16.67 µg/ml): 115%
- % cell metabolism (Huh 9-13 cells; 50 µg/ml): 92%
- % cell metabolism (Huh 9-13 cells; 1.852 (7b: 1.85) µg/ml): 109%
- cell death at highest tested concentration (Detroit 551 cells): none of the three compounds induced cell death
- IC50 (Detroit 551 cells): > 20 µM
